How the values were obtained:
[1] = system: Neovison vison; conditions: reproduction developmental; reproduction
[2] = system: Bird
[3] = system: Oncorhynchus mykiss; conditions: acute; mortality
[4] = system: Scenedesmus quadricauda; conditions: acute
[5] = system: Oryctolagus sp.; conditions: reproduction developmental; mortality
[6] = system: Rattus norvegicus; conditions: reproduction developmental; mortality
[7] = system: Pontoscolex corethrurus; conditions: acute; mortality
[8] = system: Apis mellifera; conditions: acute, mortality
[9] = system: Mus musculus; conditions: acute; oral; mortality
[10] = system: Daphnia magna; conditions: chronic/long-term

**Q.** Which results are given for [I-].[K+] [Potassium iodide]?
**A.** NOAEL [1]: 0.5 mg/kg-day; LD50 ([2]; acute, oral, unspecified, mortality): > 1180 mg/kg-day; NOEC ([2]; reproductive, reproduction): 0.69 mg/kg-day; LC50 ([2]; short-term, oral, feed, mortality): > 258 mg/kg-day; LC50 [3]: 2190 µg/mL; NOEC [4]: 1310 mg/L; NOAEL [5]: 0.5 mg/kg-day; NOAEL [6]: 0.5 mg/kg-day; LC50 [7]: > 12.5 mg/kg; LD50 ([8]; dermal): > 0.78 µg/piece; LD50 ([8]; oral, unspecified): > 2.4 µg/piece; LD50 [9]: 1860 mg/kg; NOEC [10]: 0.25 mg/L

From EPA's ToxValDB 9.5 (doi:10.2903/j.efsa.2013.2923)
